Measurements from US5219740A, “Retroviral gene transfer into diploid fibroblasts for gene therapy” (Fred Hutchinson Cancer Research Center, priority 1987, dated 1993).

Assays:
HDF 72-46 = assay: Drug concentration needed for complete cell killing; format: cell-based, human; details: Adult HDF 72-46, scored after 10 days
Method: (§1) Three drugs were tested for their ability to kill human diploid fibroblasts (HDF): the neomycin analogue G418, Hygromycin-B (Hygro), and Methotrexate (Mtx). Four HDF lines were isolated from skin biopsies of normal human donors: HDF 78-18, from a […] fetus; HDF 1-85, from newborn foreskin; HDF 79-81, from a person; and HDF 72-46, from a person. The four fibroblast lines were isolated using standard methods (Meth. Cell Biol. 219:255-276, 1980, hereby incorporated by reference) and were maintained in culture for 22 to 31 population doublings using Dulbecco-Vogt Modified Eagles Medium (D MEM) supplemented with 10% fetal bovine serum (FBS). NIH 3T3 immortalized mouse fibroblasts served as a control.
(§2) Cells were seeded at 10^4 per 3.5-cm dish in D MEM plus 10% FBS and drug, except for Mtx selection where 10% dialyzed FBS was used. Drug-resistant cells were scored after 10 days.

HDF 79-81 = assay: as above; format: cell-based, human; details: Adult HDF 79-81, scored after 10 days
Method: as §1, §2

HDF 1-85 = assay: as above; format: cell-based, human; details: Newborn HDF 1-85, scored after 10 days
Method: as §1, §2

HDF 78-18 = assay: as above; format: cell-based, human; details: for Drug Concentrations Needed For Complete Cell Killing: Fetal HDF 78-18, scored after 10 days
Method: as §1, §2

[1] = tested on: human diploid fibroblast cell lines; assay: Drug killing, summary over HDF lines; format: cell-based
Method: as §1, §2

NIH 3T3 = assay: Drug concentration needed for complete cell killing; format: cell-based, mouse; details: for Drug Concentrations Needed For Complete Cell Killing: Mouse NIH 3T3, scored after 10 days
Method: as §1, §2

SF03 cells = assay: Adenosine killing of ADA-deficient fibroblasts; format: cell-based, human
Excerpt: (§3) Referring to FIG. 5, the ADA vector LNSAL was made by inserting an ADA cDNA (Valerio, D., et al., Gene 31:147-153, 1984) linked to a SV40 early region enhancer/promoter downstream of the neo gene in N2. Helper-free virus was made by introduction of LNSAL into PA317 amphotropic retrovirus-packaging cells (ATCC No. CRL 9078), as described in Mol. Cell. Biol. 6:2895-2902, 1986, hereby incorporated by reference. […] Using either G418 or adenosine, the expression of either neo and the ADA gene was assayed in LNSAL-infected cells.

[2] = tested on: normal human diploid fibroblasts; assay: Adenosine effect on normal fibroblasts; format: cell-based; details: 2 mM
Excerpt: as §3

SMILES: CN(Cc1cnc2nc(N)nc(N)c2n1)c1ccc(C(=O)N[C@@H](CCC(=O)O)C(=O)O)cc1 [Mtx, Methotrexate]
- Drug Concentrations Needed For Complete Cell Killing (HDF 72-46; 10% dialyzed FBS): > 1000 µM
- Drug Concentrations Needed For Complete Cell Killing (HDF 79-81; 10% dialyzed FBS): > 10 µM
- Drug Concentrations Needed For Complete Cell Killing (HDF 1-85; 10% dialyzed FBS): > 1000 µM
- Drug Concentrations Needed For Complete Cell Killing (HDF 78-18; 10% dialyzed FBS): > 1000 µM
- colony formation at the highest concentration of Mtx used (HDF 78-18; HDF 78-18, viable cells remained after 15 days of selection): did not form colonies
- colony formation at the highest concentration of Mtx used ([1]; all HDF lines with the exception of HDF 78-18): formed colonies
- concentration to which the cell lines were resistant to killing ([1]; human diploid fibroblast cell lines): > 10^-5 M
- concentration to which the cell lines were resistant to killing ([1]; most human diploid fibroblast cell lines): more than 10^-3 M
- Drug Concentrations Needed For Complete Cell Killing (NIH 3T3; 10% dialyzed FBS): 0.1 µM
- concentration that efficiently killed the cells (NIH 3T3; NIH 3T3 cells): 10^-7 M

SMILES: CNC1C(O)C(OC2C(N)CC(N)C(OC3OC(C(C)O)C(O)C(O)C3N)C2O)OCC1(C)O (centres unmarked) [Vector G418]
- Drug Concentrations Needed For Complete Cell Killing (HDF 72-46; weight of dry powder): 500 µg/mL
- Drug Concentrations Needed For Complete Cell Killing (HDF 79-81; weight of dry powder): 1000 µg/mL
- Drug Concentrations Needed For Complete Cell Killing (HDF 1-85; weight of dry powder): 500 µg/mL
- Drug Concentrations Needed For Complete Cell Killing (HDF 78-18; weight of dry powder): 500 µg/mL
- Drug Concentrations Needed For Complete Cell Killing (NIH 3T3; weight of dry powder): 1000 µg/mL

SMILES: Nc1ncnc2c1ncn2[C@@H]1O[C@H](CO)[C@@H](O)[C@H]1O [adenosine]
- concentration that kills the cells (SF03 cells): 2 mM
- effect on the cells [2]: no effect
